According to patent US8557872B2, “Compounds, isomer thereof, or pharmaceutically acceptable salts thereof as vanilloid receptor antagonist; and pharmaceutical compositions containing the same” (Amorepacific Corporation, priority 2008, dated 2013):
Like-named read-outs stand apart in the source and are kept apart here.

Tests used:
[1] = target: T1, vanilloid receptor (Rattus norvegicus, UniProt O35433); assay: 45Ca influx test (calcium uptake) in primary cultured DRG neurons, capsaicin 0.5 μM; format: cell-based
T1 construct: DRG nerve cells from the primary culture of 2 days were equilibrated by washing 4 times; endogenous in cells; host or cells: primary culture of dorsal root ganglion neurons from neonatal SD rats
Protocol: 1) Separation of Spinal Dorsal Root Ganglia (DRG) in Newborn Rats and Primary Culture Thereof
Neonatal (2-3 day old or younger than 2-3 day old) SD rats were put in ice for 5 minutes to anesthetize and disinfected with 70% ethanol. […] The DRG were incubated sequentially at 37° C. for 30 mins in 200 U/ml collagenase and 2.5 mg/ml trypsin, separately. The ganglia were washed twice with DME/F12 medium supplemented with 10% horse serum, triturated through a fire-polished Pasteur pipette, filtered through Nitex 80 membrane to obtain single cell suspension and the suspension was washed once more. This was subjected to centrifugation, then resuspended in cell culture medium at certain level of cell density. As the cell culture medium, DME/F12 medium supplemented with 10% horse serum was diluted with identical medium conditioned by C6 glioma cells 2 days on a confluent monolayer (1:1), and NGF (Nerve Growth Factor) was added to adjust 200 ng/ml as final concentration. After the cells were grown 2 days in medium where cytosine arabinoside (Ara-C, 100 μM) was added to kill dividing nonneuronal cells, medium was changed to one without Ara-C. The resuspended cells were plated at a density of 1500-2000 neurons/well onto Terasaki plates previously coated with 10 μg/ml poly-D-ornithine.
2) ^45Ca Influx Experiments
DRG nerve cells from the primary culture of 2 days were equilibrated by washing 4 times with HEPES (10 mM, pH 7.4)-buffered Ca^2+, Mg^2+-free HBSS (H-HBSS). The solution in each well was removed from the individual well. Medium containing the test compound plus capsaicin (final concentration 0.5 μM) and ^45Ca (final concentration 10 μCi/ml) in H-HBSS was added to each well and incubated at room temperature for 10 mins. Terasaki plates were washed five times with H-HBSS and dried at room temperature. To each well, 0.3% SDS (10 μl) was added to elute ^45Ca. After the addition of scintillation cocktail of into each well, the amount of ^45Ca influx into neuron was measured by counting radioactivity.

[2] = PK study in rats, single oral administration; format: in vivo, rat; parameters: AUC: concentration or dose not given beside the values; settings: rat, single oral administration, plasma
Protocol: Pharmacokinetics of compounds in rats were analyzed using the following experiment. Rats were fasted overnight prior to administration and until approximately 4 hours after administration. Rats were given a single oral administration of compound at same dose. Administration volume was 10 ml/kg. Blood samples were collected from the retro-orbital sinus at various times over the following 7 hrs. Immediately after each collection, plasmas were separated from blood cells by centrifugation and stored at −20° C. until the analysis was performed. The plasma samples were analyzed using a reverse phase high-performance chromatography (HPLC) method.

[3] = rat DRG neurons, capsaicin 0.5 μM, 45Ca, read-out: Antagonist Calcium Uptake Test (IC50)
[4] = Table 2, read-out: T½ (converted)
[5] = Table 3, comparative compounds having tert-butyl-phenyl, read-out: IC50
[6] = Table 3, detection limit 0.100 mcg/ml

T1 sequence (O35433 whole entry): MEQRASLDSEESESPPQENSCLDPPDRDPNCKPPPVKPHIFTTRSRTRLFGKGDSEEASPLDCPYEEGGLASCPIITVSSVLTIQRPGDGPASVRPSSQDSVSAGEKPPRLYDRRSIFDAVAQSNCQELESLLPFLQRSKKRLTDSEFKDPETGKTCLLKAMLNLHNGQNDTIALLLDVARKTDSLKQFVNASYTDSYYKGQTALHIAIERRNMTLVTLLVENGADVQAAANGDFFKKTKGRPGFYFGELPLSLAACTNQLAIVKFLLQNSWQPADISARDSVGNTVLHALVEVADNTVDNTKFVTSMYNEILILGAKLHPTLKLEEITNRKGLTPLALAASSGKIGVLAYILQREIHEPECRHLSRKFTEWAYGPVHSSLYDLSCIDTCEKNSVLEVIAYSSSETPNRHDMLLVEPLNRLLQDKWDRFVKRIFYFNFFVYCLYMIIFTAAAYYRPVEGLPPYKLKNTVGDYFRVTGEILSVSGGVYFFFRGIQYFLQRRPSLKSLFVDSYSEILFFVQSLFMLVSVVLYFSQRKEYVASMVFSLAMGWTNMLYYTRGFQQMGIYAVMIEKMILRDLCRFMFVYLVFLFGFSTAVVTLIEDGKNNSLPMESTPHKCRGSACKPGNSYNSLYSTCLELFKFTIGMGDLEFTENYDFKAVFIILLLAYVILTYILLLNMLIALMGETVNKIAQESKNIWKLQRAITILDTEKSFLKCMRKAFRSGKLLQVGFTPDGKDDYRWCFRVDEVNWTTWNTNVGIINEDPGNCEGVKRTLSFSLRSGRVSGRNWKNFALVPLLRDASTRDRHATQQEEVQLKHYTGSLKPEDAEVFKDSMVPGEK

| Compound | IC50 [1, 3] [nM] | AUC ([2]; Table 2) [ng·h/mL] | Cmax ([2]; Table 2) [ng/mL] | Tmax ([2]; Table 2) [h] | half-life [2, 4] [h] | IC50 [1, 5] [nM] | Cmax [2, 6] [ng/mL] | further results |
| --- | --- | --- | --- | --- | --- | --- | --- | --- |
| CCCCc1cc(C(F)(F)F)ccc1/C=C/C(=O)N[C@H](C)c1cc(F)c(NS(C)(=O)=O)c(F)c1 [Example 24, (R)-3-(2-Butyl-4-trifluoromethyl-phenyl)-N-[1-(3,5-difluoro-4-methanesulfonylamino-phenyl)-ethyl]-acrylamide] | 44 | 5690 | 1190 | 2 | 2.08 | – | – | – |
| CCCNc1cc(C(F)(F)F)ccc1/C=C/C(=O)NCc1cc(F)c(NS(C)(=O)=O)c(F)c1 [Example 2, N-(3,5-Difluoro-4-methanesulfonylamino-benzyl)-3-(2-propylamino-4-trifluoromethyl-phenyl)-acrylamide] | 170 | 7150 | 1420 | 2 | 3.55 | – | – | – |
| C=Cc1cc(CNC(=O)/C=C/c2ccc(C(F)(F)F)cc2)ccc1NS(C)(=O)=O [Comp Cpd F, reference compound] | – | – | – | – | – | – | – | IC50 ([1]; comparison with comparative compounds F and G, read-out: IC50 value): 570 nM; AUC ([2]; Table 4): 40100 ng·h/mL; Tmax ([2]; Table 4): 2 h; Cmax ([2]; Table 4, detection limit 0.100 mcg/ml): 5000 ng/mL; half-life ([2]; Table 4, read-out: T1/2 (converted)): 4.59 h |
| CCCNc1cc(C(C)(C)C)ccc1/C=C/C(=O)NCc1cc(F)c(NS(C)(=O)=O)c(F)c1 [Comp Cpd D, reference compound] | – | – | – | – | – | 85 | < 100 | – |

The next lines start with results.

| IC50 [1, 3] [nM] | AUC ([2]; Table 2) [ng·h/mL] | Cmax ([2]; Table 2) [ng/mL] | Tmax ([2]; Table 2) [h] | half-life [2, 4] [h] | IC50 [1, 5] [nM] | Cmax [2, 6] [ng/mL] | Compound | further results |
| --- | --- | --- | --- | --- | --- | --- | --- | --- |
| – | – | – | – | – | 2300 | < 100 | CCCc1cc(C(C)(C)C)ccc1/C=C/C(=O)N[C@H](C)c1cc(F)c(NS(C)(=O)=O)c(F)c1 [Comp Cpd E, reference compound] | – |
| 19 | 16400 | 2720 | 2 | 3.5 | – | – | CCCc1cc(C(F)(F)F)ccc1/C=C/C(=O)N[C@H](C)c1cc(F)c(NS(C)(=O)=O)c(F)c1 [Example 21, N-[1-(3,5-Difluoro-4-methanesulfonylamino-phenyl)-ethyl]-3-(2-propyl-4-trifluoromethyl-phenyl)-acrylamide] | – |
